Test results from US6737383B1, “Herbicidal oxadiazolidines” (priority 1999, dated 2004).

Tests used:
[1] = tested on: wild oat; experiment: Test B pre/postemergence wild oat; format: in vivo, Avena fatua
Outline: (§1)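 Herbicidal effect was estimated by eye on a ten-point control scale after plants spent twelve to sixteen days in a greenhouse following soil or foliar treatment. Foliar sprays targeted plants at one to four leaves; all doses were formulated in a non-phytotoxic solvent with surfactant.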

[2] = tested on: smallflower flatsedge; experiment: Test B flood test smallflower flatsedge; format: in vivo, Cyperus difformis; settings: for Plant response rating, S. Flatsedge (0 to 10 scale, 0 is no effect, 10 is complete control) / S. Flatsedge plant response rating (0 to 10 scale, 0 is no effect, 10 is complete control): visual evaluation after twelve to sixteen days; for S. Flatsedge plant response rating (0 to 10 scale, 0 is no effect, 10 is complete control): under heading Pre-emergence
Outline: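 Plants were grown to the 2-leaf stage before treatment with test chemical, then held in a greenhouse for twelve to sixteen days. Injury was visually rated against untreated controls on a 0–10 scale, where 0 is no effect and 10 is complete control.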

[3] = tested on: crabgrass; experiment: Test B pre/postemergence crabgrass; format: in vivo, Digitaria sanguinalis
Outline: as §1

[4] = tested on: soybean; experiment: Test B pre/postemergence soybean; format: in vivo, Glycine max
Outline: as §1

[5] = tested on: wheat; experiment: Test B pre/postemergence wheat; format: in vivo, Triticum aestivum
Outline: as §1

[6] = Preemergence, Rate 62 g/ha, scale of 0 to 10 where 0 is no effect and 10 is complete control
[7] = Preemergence, Rate 250 g/ha, scale of 0 to 10 where 0 is no effect and 10 is complete control
[8] = Preemergence, Rate 500 g/ha, scale of 0 to 10 where 0 is no effect and 10 is complete control
[9] = Rate 62 g/ha, Postemergence, scale 0 to 10 (0 no effect, 10 complete control)
[10] = Rate 125 g/ha, Postemergence, scale of 0 to 10 where 0 is no effect and 10 is complete control
[11] = Rate 250 g/ha, Postemergence, scale of 0 to 10 where 0 is no effect and 10 is complete control
[12] = Postemergence, Rate 31 g/ha, visual rating, scale 0 to 10 (0 no effect, 10 complete control)
[13] = Postemergence, Rate 250 g/ha, scale 0 to 10
[14] = Preemergence, Rate 125 g/ha, scale of 0 to 10 where 0 is no effect and 10 is complete control
[15] = Preemergence, Rate 250 g/ha, scale 0 to 10, 0 is no effect, 10 is complete control
[16] = Rate 125 g/ha, Postemergence, scale 0 to 10, 0 is no effect, 10 is complete control
[17] = Rate 62 g/ha, flood test species, Pre-emergence
[18] = Rate 125 g/ha, flood test species
[19] = Rate 250 g/ha, Pre-emergence (flood test species), scale 0 to 10, 0 is no effect, 10 is complete control
[20] = Postemergence, Rate 62 g/ha, scale 0 to 10, 0 is no effect, 10 is complete control
[21] = Postemergence, Rate 125 g/ha, scale of 0 to 10 where 0 is no effect and 10 is complete control
[22] = Postemergence, Rate 250 g/ha, scale of 0 to 10, 0 is no effect, 10 is complete control
[23] = Preemergence, Rate 250 g/ha, scale 0 to 10 (0 no effect, 10 complete control)
[24] = Rate 500 g/ha, Pre-emergence section of Table B, 0 to 10 scale (0 no effect, 10 complete control)
[25] = Preemergence, Rate 62 g/ha, scale 0 to 10 (0 no effect, 10 complete control)
[26] = Rate 500 g/ha, Postemergence, scale 0 to 10, 0 is no effect, 10 is complete control

Which results are given for `CC(C)n1c(=O)on(C(=O)N(c2ccc(Cl)cc2Cl)C2CCC2)c1=O` [Compound 319]?
Wild oats plant response rating [1, 6]: 0; Wild oats plant response rating (0 to 10 scale) ([1]; Preemergence, Rate 125 g/ha): 0; Wild oats plant response rating [1, 7]: 0; Wild oats plant response rating [1, 8]: 0; Wild oats plant response rating [1, 9]: 0; Wild oats plant response rating [1, 10]: 0; Plant response rating, Wild oats [1, 11]: 0; S. Flatsedge plant response rating ([2]; Rate 62 g/ha, headed Pre-emergence (flood test species), scale 0 to 10 (0 no effect, 10 complete control)): 0; S. Flatsedge plant response rating ([2]; Rate 125 g/ha, Pre-emergence, flood test species, scale 0 to 10 where 0 is no effect and 10 is complete control): 0; S. Flatsedge plant response rating ([2]; Rate 250 g/ha, Pre-emergence, flood-test species, scale 0 to 10, 0 is no effect, 10 is complete control): 0; S. Flatsedge plant response rating ([2]; Rate 500 g/ha, Pre-emergence, flood test species, scale 0 to 10 (0 no effect, 10 complete control)): 0; Crabgrass plant response rating [3, 6]: 0; Crabgrass plant response rating (0 to 10 scale) ([3]; Preemergence, Rate 125 g/ha): 0; Crabgrass plant response rating [3, 7]: 2; Crabgrass plant response rating [3, 8]: 3; Crabgrass plant response rating [3, 9]: 0; Crabgrass plant response rating [3, 10]: 0; Plant response rating, Crabgrass [3, 11]: 0; Soybean plant response rating [4, 6]: 0; Soybean plant response rating (0 to 10 scale) ([4]; Preemergence, Rate 125 g/ha): 0; Soybean plant response rating [4, 7]: 0; Soybean plant response rating [4, 8]: 0; Soybean plant response rating [4, 9]: 0; Soybean plant response rating [4, 10]: 1; Plant response rating, Soybean [4, 11]: 1; Wheat plant response rating [5, 6]: 0; Wheat plant response rating (0 to 10 scale) ([5]; Preemergence, Rate 125 g/ha): 0; Wheat plant response rating [5, 7]: 0; Wheat plant response rating [5, 8]: 0; Wheat plant response rating [5, 9]: 0; Wheat plant response rating [5, 10]: 0; Plant response rating, Wheat [5, 11]: 0

Which “Wild oats plant response rating” value [1, 12] does the source give for `Cc1nc(C)c(C(C)n2c(=O)on(C(=O)N(c3ccccc3)C(C)C)c2=O)s1` (stereo not drawn) [Compound 442] here?
The value was 0.

What about the “Wild oats plant response rating” value [1, 13] of the same compound?
Its value is 0.

What about the “Plant response rating, Wild oats” value [1, 6] of the same compound?
The value was 0.

What about the “Plant response rating, Wild oats” value [1, 14] of the same compound?
The value was 0.

What about the “Wild oats plant response rating” value [1, 15] of the same compound?
The value was 0.

What about the “Wild oats plant response rating” value [1, 9] of the same compound?
Its value is 0.

What about the “Wild oats plant response rating” value [1, 16] of the same compound?
Its value is 0.

And the “S. Flatsedge plant response rating” value ([2]; Rate 31 g/ha, Pre-emergence section (flood test species), scale 0 to 10)?
Its value is 0.

What about the “Plant response rating, S. Flatsedge (0 to 10 scale, 0 is no effect, 10 is complete control)” value [2, 17] of the same compound?
Its value is 0.

What about the “S. Flatsedge plant response rating (0 to 10 scale, 0 is no effect, 10 is complete control)” value [2, 18] of the same compound?
Its value is 0.

What about the “S. Flatsedge plant response rating” value [2, 19] of the same compound?
Its value is 0.

And the “Crabgrass plant response rating” value [3, 12]?
The value was 0.

What about the “Crabgrass plant response rating” value [3, 13] of the same compound?
Its value is 0.

What about the “Crabgrass plant response rating” value ([3]; Preemergence, Rate 31 g/ha, visual rating, scale 0 to 10 (0 no effect, 10 complete control)) of the same compound?
The value was 5.

And the “Plant response rating, Crabgrass” value [3, 6]?
Its value is 7.

And the “Plant response rating, Crabgrass” value [3, 14]?
The value was 8.

And the “Crabgrass plant response rating” value [3, 15]?
The value was 8.

What about the “Crabgrass plant response rating” value [3, 9] of the same compound?
Its value is 0.

And the “Crabgrass plant response rating” value [3, 16]?
Its value is 0.

And the “Soybean plant response rating” value [4, 12]?
The value was 0.

What about the “Soybean plant response rating” value [4, 13] of the same compound?
Its value is 0.

And the “Plant response rating, Soybean” value [4, 6]?
The value was 0.

And the “Plant response rating, Soybean” value [4, 14]?
The value was 0.

And the “Soybean plant response rating” value [4, 15]?
The value was 0.

What about the “Soybean plant response rating” value [4, 9] of the same compound?
The value was 0.

What about the “Soybean plant response rating” value [4, 16] of the same compound?
Its value is 0.

And the “Wheat plant response rating” value [5, 12]?
Its value is 0.

What about the “Wheat plant response rating” value [5, 13] of the same compound?
Its value is 0.

And the “Plant response rating, Wheat” value [5, 6]?
The value was 0.

And the “Plant response rating, Wheat” value [5, 14]?
The value was 0.

What about the “Wheat plant response rating” value [5, 15] of the same compound?
The value was 0.

And the “Wheat plant response rating” value [5, 9]?
Its value is 0.

And the “Wheat plant response rating” value [5, 16]?
Its value is 0.

With `COCCn1c(=O)on(C(=O)N(c2ccc(F)cc2F)C(C)C)c1=O` [Compound 628] as the compound, how does the “Plant response rating, Wild oats” value [1, 20] read?
The value was 0.

What about the “Plant response rating, Wild oats” value [1, 21] of the same compound?
Its value is 3.

What about the “Wild oats plant response rating” value [1, 22] of the same compound?
Its value is 5.

And the “Wild oats plant response rating” value [1, 14]?
The value was 2.

And the “Plant response rating, Wild oats” value [1, 23]?
Its value is 8.

What about the “Plant response rating, Wild oats” value [1, 8] of the same compound?
The value was 10.

What about the “Plant response rating, S. Flatsedge (0 to 10 scale, 0 is no effect, 10 is complete control)” value [2, 17] of the same compound?
Its value is 0.

And the “S. Flatsedge plant response rating (0 to 10 scale, 0 is no effect, 10 is complete control)” value [2, 18]?
The value was 0.

And the “S. Flatsedge plant response rating” value [2, 19]?
Its value is 0.

And the “S. Flatsedge plant response rating” value [2, 24]?
Its value is 0.

What about the “Plant response rating, Crabgrass” value [3, 20] of the same compound?
The value was 8.

What about the “Crabgrass plant response rating” value [3, 22] of the same compound?
Its value is 9.

And the “Plant response rating, Crabgrass” value ([3]; Postemergence, Rate 500 g/ha, scale of 0 to 10 where 0 is no effect and 10 is complete control)?
Its value is 9.

What about the “Crabgrass plant response rating” value [3, 25] of the same compound?
Its value is 8.

What about the “Crabgrass plant response rating” value [3, 14] of the same compound?
The value was 8.

And the “Plant response rating, Crabgrass” value [3, 23]?
The value was 9.

And the “Plant response rating, Crabgrass” value [3, 8]?
The value was 10.

What about the “Plant response rating, Soybean” value [4, 20] of the same compound?
The value was 4.

What about the “Soybean plant response rating” value [4, 25] of the same compound?
Its value is 0.

What about the “Soybean plant response rating” value [4, 14] of the same compound?
The value was 0.

What about the “Plant response rating, Soybean” value [4, 23] of the same compound?
The value was 4.

What about the “Plant response rating, Soybean” value [4, 8] of the same compound?
Its value is 7.

What about the “Plant response rating, Wheat” value [5, 20] of the same compound?
Its value is 0.

What about the “Plant response rating, Wheat” value [5, 21] of the same compound?
The value was 4.

What about the “Wheat plant response rating” value [5, 22] of the same compound?
The value was 7.

And the “Wheat plant response rating” value [5, 25]?
Its value is 3.

What about the “Wheat plant response rating” value [5, 14] of the same compound?
Its value is 3.

And the “Plant response rating, Wheat” value [5, 23]?
The value was 7.

What about the “Plant response rating, Wheat” value [5, 8] of the same compound?
The value was 10.

Which results are given for `CC(C)N(C(=O)n1oc(=O)n(CC2CCCCO2)c1=O)c1ccccc1` (stereo not drawn) [Compound 659]?
Plant response rating, Wild oats [1, 20]: 0; Wild oats plant response rating [1, 21]: 0; Wild oats plant response rating [1, 6]: 0; Wild oats plant response rating [1, 14]: 0; Plant response rating, Wild oats [1, 23]: 3; Plant response rating, Wild oats [1, 8]: 9; Wild oats plant response rating [1, 26]: 3; Plant response rating, S. Flatsedge (0 to 10 scale, 0 is no effect, 10 is complete control) [2, 17]: 0; S. Flatsedge plant response rating (0 to 10 scale, 0 is no effect, 10 is complete control) [2, 18]: 0; S. Flatsedge plant response rating [2, 19]: 0; S. Flatsedge plant response rating [2, 24]: 5; Plant response rating, Crabgrass [3, 20]: 1; Crabgrass plant response rating [3, 21]: 6; Crabgrass plant response rating [3, 22]: 6; Crabgrass plant response rating [3, 6]: 8; Crabgrass plant response rating [3, 14]: 8; Plant response rating, Crabgrass [3, 8]: 10; Crabgrass plant response rating [3, 26]: 8; Plant response rating, Soybean [4, 20]: 2; Soybean plant response rating [4, 21]: 3; Soybean plant response rating [4, 6]: 0; Soybean plant response rating [4, 14]: 0; Plant response rating, Soybean [4, 23]: 0; Plant response rating, Soybean [4, 8]: 2; Soybean plant response rating [4, 26]: 7; Plant response rating, Wheat [5, 20]: 0; Wheat plant response rating [5, 21]: 0; Wheat plant response rating [5, 6]: 0; Wheat plant response rating [5, 14]: 0; Plant response rating, Wheat [5, 23]: 2; Plant response rating, Wheat [5, 8]: 7; Wheat plant response rating [5, 26]: 5
